# Activity calls are given as the source filed them. No cut-off for these calls is given here.
# Columns and labels:
# [1] = tested on: CAKI-1; experiment: Growth inhibition of human Caki1 cells after 48 hrs by sulforhodamine B assay; type: functional; conditions: CAKI-1, 48 h
# [2] = tested on: Malme-3M; experiment: Growth inhibition of human MALME-3M cells after 48 hrs by sulforhodamine B assay; type: functional
# [3] = tested on: MOLT-4; experiment: Growth inhibition of human MOLT4 cells at 1 uM after 48 hrs by sulforhodamine B assay; type: functional, cell-based
# [4] = tested on: 786-0; experiment: Growth inhibition of human 786-0 cells at 1 uM after 48 hrs by sulforhodamine B assay; type: functional, cell-based
# [5] = tested on: NCI-H322M; experiment: Growth inhibition of human […] cells at 1 uM after 48 hrs by sulforhodamine B assay; type: functional, cell-based
# [6] = tested on: U-251; experiment: Growth inhibition of human U251 cells after 48 hrs by sulforhodamine B assay; type: functional; conditions: U-251, 48 h
# [7] = tested on: Malme-3M; experiment: Growth inhibition of human MALME-3M cells at 1 uM after 48 hrs by sulforhodamine B assay; type: functional, cell-based
# [8] = tested on: ACHN; experiment: Growth inhibition of human ACHN cells at 1 uM after 48 hrs by sulforhodamine B assay; type: functional, cell-based
# [9] = tested on: EKVX; experiment: Growth inhibition of human EKVX cells at 1 uM after 48 hrs by sulforhodamine B assay; type: functional, cell-based
# [10] = tested on: OVCAR-3; experiment: Growth inhibition of human OVCAR-3 cells at 1 uM after 48 hrs by sulforhodamine B assay; type: functional, cell-based
# [11] = tested on: SF530; experiment: Growth inhibition of human SF530 cells at 1 uM after 48 hrs by sulforhodamine B assay; type: functional, cell-based
# [12] = tested on: KM12; experiment: Growth inhibition of human KM12 cells after 48 hrs by sulforhodamine B assay; type: functional; conditions: KM12, 48 h
# [13] = tested on: HCT-116; experiment: Growth inhibition of human HCT116 cells after 48 hrs by sulforhodamine B assay; type: functional; conditions: HCT-116, 48 h
# [14] = tested on: OVCAR-3; experiment: Growth inhibition of human OVCAR-3 cells after 48 hrs by sulforhodamine B assay; type: functional; conditions: OVCAR-3, 48 h
# [15] = tested on: M14; experiment: Growth inhibition of human M14 cells at 1 uM after 48 hrs by sulforhodamine B assay; type: functional, cell-based
# [16] = tested on: SR; experiment: Growth inhibition of human SR cells after 48 hrs by sulforhodamine B assay; type: functional
# [17] = tested on: NCI-H23; experiment: Growth inhibition of human NCI-H23 cells after 48 hrs by sulforhodamine B assay; type: functional; conditions: NCI-H23, 48 h
# [18] = tested on: UACC-257; experiment: Growth inhibition of human UACC257 cells after 48 hrs by sulforhodamine B assay; type: functional; conditions: UACC-257, 48 h
# [19] = tested on: HCT-116; experiment: Growth inhibition of human HCT116 cells at 1 uM after 48 hrs by sulforhodamine B assay; type: functional, cell-based
# [20] = tested on: A498; experiment: Growth inhibition of human A498 cells at 1 uM after 48 hrs by sulforhodamine B assay; type: functional, cell-based
# [21] = tested on: HT-29; experiment: Growth inhibition of human HT-29 cells at 1 uM after 48 hrs by sulforhodamine B assay; type: functional, cell-based
# [22] = tested on: UACC-62; experiment: Growth inhibition of human UACC62 cells at 1 uM after 48 hrs by sulforhodamine B assay; type: functional, cell-based
# [23] = tested on: UO-31; experiment: Growth inhibition of human UO31 cells at 1 uM after 48 hrs by sulforhodamine B assay; type: functional, cell-based
# [24] = tested on: NCI-H460; experiment: Growth inhibition of human NCI-H460 cells after 48 hrs by sulforhodamine B assay; type: functional; conditions: NCI-H460, 48 h
# [25] = tested on: SK-MEL-28; experiment: Growth inhibition of human SK-MEL-28 cells at 1 uM after 48 hrs by sulforhodamine B assay; type: functional, cell-based
# [26] = tested on: NCI-H522; experiment: Growth inhibition of human NCI-H522 cells at 1 uM after 48 hrs by sulforhodamine B assay; type: functional, cell-based
# [27] = tested on: BT-549; experiment: Growth inhibition of human BT549 cells after 48 hrs by sulforhodamine B assay; type: functional; conditions: BT-549, 48 h
# [28] = tested on: HOP-92; experiment: Growth inhibition of human HOP92 cells after 48 hrs by sulforhodamine B assay; type: functional; conditions: HOP-92, 48 h
# [29] = tested on: NCI/ADR-RES; experiment: Growth inhibition of human NCI/ADR-RES cells at 1 uM after 48 hrs by sulforhodamine B assay; type: functional, cell-based
# [30] = tested on: NCI-H226; experiment: Growth inhibition of human NCI-H226 cells at 1 uM after 48 hrs by sulforhodamine B assay; type: functional, cell-based
# [31] = tested on: T47D; experiment: Growth inhibition of human T47D cells at 1 uM after 48 hrs by sulforhodamine B assay; type: functional, cell-based
# [32] = tested on: DU-145; experiment: Growth inhibition of human DU145 cells at 1 uM after 48 hrs by sulforhodamine B assay; type: functional, cell-based
# [33] = tested on: CAKI-1; experiment: Growth inhibition of human Caki1 cells at 1 uM after 48 hrs by sulforhodamine B assay; type: functional, cell-based
# [34] = tested on: MDA-MB-435; experiment: Growth inhibition of human MDA-MB-435 cells after 48 hrs by sulforhodamine B assay; type: functional; conditions: MDA-MB-435, 48 h
# [35] = tested on: HL-60; experiment: Growth inhibition of human HL-60(TB) cells at 1 uM after 48 hrs by sulforhodamine B assay; type: functional, cell-based
# [36] = tested on: PC-3; experiment: Growth inhibition of human PC3 cells after 48 hrs by sulforhodamine B assay; type: functional; conditions: PC-3, 48 h
# [37] = tested on: TK-10; experiment: Growth inhibition of human TK10 cells after 48 hrs by sulforhodamine B assay; type: functional; conditions: TK-10, 48 h
# [38] = tested on: SN12C; experiment: Growth inhibition of human SN12C cells after 48 hrs by sulforhodamine B assay; type: functional
# [39] = tested on: EKVX; experiment: Growth inhibition of human EKVX cells after 48 hrs by sulforhodamine B assay; type: functional
# [40] = tested on: MDA-MB-435; experiment: Growth inhibition of human MDA-MB-435 cells at 1 uM after 48 hrs by sulforhodamine B assay; type: functional, cell-based
# [41] = tested on: HOP-92; experiment: Growth inhibition of human HOP92 cells at 1 uM after 48 hrs by sulforhodamine B assay; type: functional, cell-based
# [42] = tested on: OVCAR-4; experiment: Growth inhibition of human OVCAR4 cells after 48 hrs by sulforhodamine B assay; type: functional; conditions: OVCAR-4, 48 h
# [43] = tested on: OVCAR-4; experiment: Growth inhibition of human OVCAR4 cells at 1 uM after 48 hrs by sulforhodamine B assay; type: functional, cell-based
# [44] = tested on: HOP-62; experiment: Growth inhibition of human HOP62 cells at 1 uM after 48 hrs by sulforhodamine B assay; type: functional, cell-based
# [45] = tested on: ACHN; experiment: Growth inhibition of human ACHN cells after 48 hrs by sulforhodamine B assay; type: functional
# [46] = tested on: SK-MEL-2; experiment: Growth inhibition of human SK-MEL-2 cells at 1 uM after 48 hrs by sulforhodamine B assay; type: functional, cell-based
# [47] = tested on: MDA-MB-231; experiment: Growth inhibition of human MDA-MB-231 cells after 48 hrs by sulforhodamine B assay; type: functional; conditions: MDA-MB-231, 48 h
# [48] = read-out: LC50 (the source's name)
structure (smiles),measurement,setting,value
Nc1nc(N)c2c(n1)NC(c1ccccc1)C1CCc3ccccc3C1=N2 (configuration not stated),GI50,[1],3.97 µM
same,CC50,[1]; [48],48.5 µM
same,GI50,[2],2.13 µM
same,LC50,[2],82.5 µM
same,growth inhibition (GI),[3],inactive
same,growth inhibition (GI),[4],inactive
same,growth inhibition (GI),[5],inactive
same,GI50,[6],4.65 µM
same,LC50,[6],44 µM
same,growth inhibition (GI),[7],inactive
same,growth inhibition (GI),[8],inactive
same,growth inhibition (GI),[9],inactive
same,growth inhibition (GI),[10],inactive
same,growth inhibition (GI),[11],inactive
same,GI50,[12],4.07 µM
same,LC50 (concentration killing 50% of cells),[12],39.7 µM
same,GI50,[13],2.97 µM
same,LC50,[13],38 µM
same,GI50,[14],3.48 µM
same,"LC50 (lethal concentration, 50% cell kill)",[14],39.4 µM
same,growth inhibition (GI),[15],inactive
same,GI50,[16],4.52 µM
same,LC50,[16],> 100 µM
same,GI50,[17],4.56 µM
same,LC50,[17],57.4 µM
same,GI50,[18],3.72 µM
same,CC50,[18]; [48],42.6 µM
same,growth inhibition (GI),[19],inactive
same,growth inhibition (GI),[20],inactive
same,growth inhibition (GI),[21],inactive
same,growth inhibition (GI),[22],inactive
same,growth inhibition (GI),[23],inactive
same,GI50,[24],3.81 µM
same,LC50,[24],44.2 µM
same,growth inhibition (GI),[25],inactive
same,growth inhibition (GI),[26],inactive
same,GI50,[27],5.42 µM
same,CC50,[27]; [48],47.9 µM
same,GI50,[28],2.55 µM
same,LC50 (50% lethal concentration),[28],40.6 µM
same,growth inhibition (GI),[29],inactive
same,growth inhibition (GI),[30],inactive
same,growth inhibition (GI),[31],inactive
same,growth inhibition (GI),[32],inactive
same,growth inhibition (GI),[33],inactive
same,GI50,[34],2.93 µM
same,LC50 (concentration killing 50% of cells),[34],39.9 µM
same,growth inhibition (GI),[35],inactive
same,GI50,[36],2.82 µM
same,LC50,[36],> 100 µM
same,GI50,[37],3.01 µM
same,LC50 (50% lethal concentration),[37],43.6 µM
same,GI50,[38],7.33 µM
same,CC50,[38]; [48],50.8 µM
same,GI50,[39],2.68 µM
same,LC50,[39],78.3 µM
same,growth inhibition (GI),[40],inactive
same,growth inhibition (GI),[41],inactive
same,GI50,[42],3.06 µM
same,LC50 (50% lethal concentration),[42],62.3 µM
same,growth inhibition (GI),[43],inactive
same,growth inhibition (GI),[44],inactive
same,GI50,[45],4.38 µM
same,LC50 (50% lethal concentration),[45],41.9 µM
same,growth inhibition (GI),[46],inactive
same,GI50,[47],6.02 µM
same,CC50,[47]; [48],51.9 µM
